Results: patent US8278072B1, “Method for synthesis of sialylated products using reversible sialylation” (Health Research, Inc., priority 2007, dated 2012)

Assays:
[1] = test system: MCF-7; test: Reversible sialyltransferase activity in cell extract; format: biochemical, human; details: MCF-7 (breast) cell extract, 1.0 mM 5′-CMP, 16 h, pH 6.0
Text: (§1) Thus, [9-^3H[4]] was used as donor and D-Fucβ1,3GalNAcα-O-Bn as acceptor in the presence of 5′-CMP and solubilized cell extracts. Of the cells tested, human prostate cancer cell lines LNCaP and PC-3 contained significant reversible sialyltransferase activity.

[2] = test system: MDA-MB231; test: as above; format: biochemical, human; details: MDA-MB231 (breast) cell extract, 1.0 mM 5′-CMP, 16 h, pH 6.0
Text: as §1

[3] = test system: PC3; test: as above; format: biochemical, human; details: PC3 (prostate) cell extract, 1.0 mM 5′-CMP, 16 h, pH 6.0
Text: as §1

[4] = test system: T47D; test: as above; format: biochemical, human; details: T47D (breast) cell extract, 1.0 mM 5′-CMP, 16 h, pH 6.0
Text: as §1

[5] = test system: LNCaP; test: as above; format: biochemical, human; details: LNCaP (prostate) cell extract, 1.0 mM 5′-CMP, 16 h, pH 6.0
Text: as §1

[6] = test system: ZR75-1; test: as above; format: biochemical, human; details: ZR75-1 (breast) cell extract, 1.0 mM 5′-CMP, 16 h, pH 6.0
Text: as §1

[7] = test system: MDA-MB-435; test: as above; format: biochemical, human; details: MDA-MB-435 (breast) cell extract, 1.0 mM 5′-CMP, 16 h, pH 6.0
Text: as §1

[8] = test system: LS180; test: as above; format: biochemical, human; details: LS180 (colon) cell extract, 1.0 mM 5′-CMP, 16 h, pH 6.0
Text: as §1

[9] = test system: HL60; test: as above; format: biochemical, human; details: HL60 (leukemia) cell extract, 1.0 mM 5′-CMP, 16 h, pH 6.0
Text: as §1

[10] = target: T1, ST3Gal-II (Rattus norvegicus, UniProt Q11205); test: Serial transfer of sialic acid from donor via 5′-CMP to acceptors (scheme-II); format: biochemical; details: 0.15 mM donor; 2 mM 5′-CMP with core-2 donors
T1 construct: purchased Calbiochem
T1 sequence (Q11205 1-350): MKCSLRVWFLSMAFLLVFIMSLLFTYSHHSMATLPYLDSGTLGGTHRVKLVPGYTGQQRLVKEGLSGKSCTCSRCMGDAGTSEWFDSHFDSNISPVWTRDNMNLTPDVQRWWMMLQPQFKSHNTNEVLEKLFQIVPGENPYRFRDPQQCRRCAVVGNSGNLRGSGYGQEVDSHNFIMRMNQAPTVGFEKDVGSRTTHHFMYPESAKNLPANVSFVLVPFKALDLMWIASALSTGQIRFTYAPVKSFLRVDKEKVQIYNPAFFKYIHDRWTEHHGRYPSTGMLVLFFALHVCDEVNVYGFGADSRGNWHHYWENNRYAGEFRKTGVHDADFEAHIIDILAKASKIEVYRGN

[9-^3H]NeuAcα2,3Galβ1,3(6-O-SulfoGlcNAcβ1,6)GalNAcα-O—Al [[4]]
Transfer of [9-3H]NeuAc from [9-3H[4]] to [5] [1]: 0.57 CPM × 10^−3/mg protein
Transfer of [9-3H]NeuAc from [9-3H[4]] to [5] [2]: 0.09 CPM × 10^−3/mg protein
Transfer of [9-3H]NeuAc from [9-3H[4]] to [5] [3]: 4.72 CPM × 10^−3/mg protein
Transfer of [9-3H]NeuAc from [9-3H[4]] to [5] [4]: 0.52 CPM × 10^−3/mg protein
Transfer of [9-3H]NeuAc from [9-3H[4]] to [5] [5]: 19.89 CPM × 10^−3/mg protein
Transfer of [9-3H]NeuAc from [9-3H[4]] to [5] [6]: 1.32 CPM × 10^−3/mg protein
Transfer of [9-3H]NeuAc from [9-3H[4]] to [5] [7]: 0.69 CPM × 10^−3/mg protein
Transfer of [9-3H]NeuAc from [9-3H[4]] to [5] [8]: 0.01 CPM × 10^−3/mg protein
Transfer of [9-3H]NeuAc from [9-3H[4]] to [5] [9]: 0.76 CPM × 10^−3/mg protein
amount of acceptor [5] required for comparable transfer [10]: ~6 mM
